Results: US9539237B2, “Compositions and methods for drug-sensitization or inhibition of a cancer cell” (The Texas A&M University System, priority 2012, dated 2017)

Assays:
[1] = system: CHOP-sensitive NHL cell line CRL2631; assay: Cell growth assay (resazurin fluorescence) on CRL2631 cells; format: cell-based, human
From the text: Several human cell lines were utilized as in vitro models of NHL, including the CRL2631 line obtained from the American Type Culture Collection (ATCC). CRL2631 was established from peripheral blood leukocytes (PBL) of a patient with DLBCL.
In these experiments, the following cell lines were used: CHOP-resistant NHL cell line G3, CHOP-sensitive NHL cell line CRL2631, the multi-drug resistant sarcoma cell line MES-SA-Dx5; multi-drug-resistant breast cancer cell line MDA-MB-231, multi-drug resistant ovarian carcinoma cell line SK-OV3, multi-drug resistant ovarian cancer cell line NCI/ADR-RES, drug-sensitive ovarian cancer cell line OVCAR-5, and multi-drug resistant ovarian cancer cell line OVCAR-3.
Additional cell lines used include: ovarian cancer OVCAR-8. T lymphoblastoid leukemia MOLT-4, dexamethasone-resistant multiple myeloma MM.1R, myeloid leukemia cells HL-60, osteosarcoma cells U-2 OS, and myeloma RPMI 8226.

[2] = system: G3 CHOP-resistant NHL cells; assay: G3 tumor efficacy studies in SCID mice; format: in vivo
Experimental: In a first efficacy study, 6-8 week old female SCID mice (7 mice per treatment arm) were injected subcutaneously on both flanks with 1×10^7 G3 CHOP-resistant NHL cells. Once palpable tumors (about […] size) appeared, therapies (CHOP or CHOP+rifabutin) were started. CHOP was administered at the maximum tolerated dose (cyclophosphamide, 40 mg/kg i.v.; doxorubicin, 3.3 mg/kg i.v.; vincristine, 0.5 mg/kg i.v.; and prednisone, 0.2 mg/kg orally daily for 5 d) weekly for 3 weeks. Rifabutin in an amount of 100 mg/kg was administered on the day of each CHOP treatment and 24-hours later by gavage. Mouse body weight and tumor size were monitored every two days and tumor size measured by caliper. The tumor volume formula (L*W*W)/2 was used to calculate tumor mass.
A second efficacy study was conducted where mice were treated before the appearance of palpable tumors. In that experiment, one week after transplantation of CHOP-resistant G3 cells, one group (7 mice) was treated with CHOP-only and a second group (8 mice) was treated with CHOP+rifabutin.
A third study was conducted in which mice injected with CHOP-resistant G3 cells received reduced dosages of CHOP in combination with 33 mg/kg rifabutin. CHOP+rifabutin was administered weekly beginning one week post-inoculation. Control mice were given no CHOP or rifabutin.
SCID mice were injected with CHOP-resistant G3 cells in the same manner as the first efficacy study above. Treatments began 2 weeks post-inoculation and were administered twice weekly.

[3] = system: CHOP-sensitive CRL2631 cells; assay: Prevention of the emergence of CHOP resistance in CRL2631 cells; format: cell-based, human; conditions: half (0.5×) and full (1×) doses of CHOP, one week treatment
Experimental: The ability of rifabutin to prevent the emergence of CHOP-resistance was determined by treating CHOP-sensitive CRL2631 cells with either CHOP alone or CHOP+rifabutin for one week. Following treatment, the cells were grown in the absence of CHOP, then their sensitivity to CHOP was assayed by retreatment with CHOP, followed by counting of viable cells. […] A 1× CHOP dose in this experiment corresponds to final concentrations of the following components: 0.83 μM 4-hydroxycyclophosphamide [4HC, a pre-activated form of cyclophosphamide], 0.057 μM doxorubicin, 0.01 μM vincristine, and 0.186 μM prednisone.

[4] = system: total intracellular ROS; assay: Intracellular ROS by CellROX staining and flow cytometry; format: cell-based; conditions: CHOP-resistant (G3) cells, 10 uM rifabutin, FIG. 35
From the text: Cells were then stained with the fluorescent ROS indicator, CellROX, and subjected to flow cytometry to quantitate total intracellular ROS.
The electron transport chain (ETC) is known to be a primary generator of ROS in the cell. Most of the ROS is generated by Complexes I and III of the ETC. Inhibition of Complex I results in electrons piling up and leaking to react with oxygen to produce ROS.
MDR/P-gp activity is closely associated with calcium status in the cell, so calcium modulators were tested for effects on ROS. […] Relatively Dox-sensitive lymphoma (CRL2631, 10S, WSU) and ovarian carcinoma (OVCAR8) and more Dox-resistant lymphoma (G3R, 10R, WSUR) and ovarian carcinoma (ADR) were treated with 10 uM […] for 2 hrs. […] Cells were co-stained with the cell-permeable red fluorescent ROS indicator, CellROX, and cell-permeable green fluorescent calcium indicator. Fluo-4AM, and then subjected to flow cytometry to quantitate changes in ROS and calcium levels.
All samples were analyzed at the same time in flow cytometry.

[5] = system: Akt; assay: Effect on Akt; format: cell-based
From the text: Although some drug-sensitization or cancer cell inhibition effects may be mediated by the ROS pathway, compositions and methods of the present disclosure may act via other cellular pathways alternatively to or in addition to the Akt/14-3-3ζ/ETC/ROS network. This may be particularly true with respect to drug-sensitization to chemotherapeutics that operate in a different manner than CHOP. For example, ROS may affect the mitochondrial-directed Bcl-2 apoptosis pathway as well. […] Accordingly, it appears likely that an initial ROS induction event may occur, followed by a secondary downstream effect downregulating Akt. In CHOP-resistant cells, Akt is constitutively active thereby increasing Complex I activity resulting in decreases in ROS. Induction of ROS by compositions and methods of the present disclosure will further promote drug sensitivity in the resistant cancer cell by downregulating the Akt pathway.

[6] = biological target: ABCB1 pumps (Homo sapiens, UniProt P08183); conditions: NCI/ADR-RES and G3 cells
Sequence of ABCB1 pumps (P08183 whole entry): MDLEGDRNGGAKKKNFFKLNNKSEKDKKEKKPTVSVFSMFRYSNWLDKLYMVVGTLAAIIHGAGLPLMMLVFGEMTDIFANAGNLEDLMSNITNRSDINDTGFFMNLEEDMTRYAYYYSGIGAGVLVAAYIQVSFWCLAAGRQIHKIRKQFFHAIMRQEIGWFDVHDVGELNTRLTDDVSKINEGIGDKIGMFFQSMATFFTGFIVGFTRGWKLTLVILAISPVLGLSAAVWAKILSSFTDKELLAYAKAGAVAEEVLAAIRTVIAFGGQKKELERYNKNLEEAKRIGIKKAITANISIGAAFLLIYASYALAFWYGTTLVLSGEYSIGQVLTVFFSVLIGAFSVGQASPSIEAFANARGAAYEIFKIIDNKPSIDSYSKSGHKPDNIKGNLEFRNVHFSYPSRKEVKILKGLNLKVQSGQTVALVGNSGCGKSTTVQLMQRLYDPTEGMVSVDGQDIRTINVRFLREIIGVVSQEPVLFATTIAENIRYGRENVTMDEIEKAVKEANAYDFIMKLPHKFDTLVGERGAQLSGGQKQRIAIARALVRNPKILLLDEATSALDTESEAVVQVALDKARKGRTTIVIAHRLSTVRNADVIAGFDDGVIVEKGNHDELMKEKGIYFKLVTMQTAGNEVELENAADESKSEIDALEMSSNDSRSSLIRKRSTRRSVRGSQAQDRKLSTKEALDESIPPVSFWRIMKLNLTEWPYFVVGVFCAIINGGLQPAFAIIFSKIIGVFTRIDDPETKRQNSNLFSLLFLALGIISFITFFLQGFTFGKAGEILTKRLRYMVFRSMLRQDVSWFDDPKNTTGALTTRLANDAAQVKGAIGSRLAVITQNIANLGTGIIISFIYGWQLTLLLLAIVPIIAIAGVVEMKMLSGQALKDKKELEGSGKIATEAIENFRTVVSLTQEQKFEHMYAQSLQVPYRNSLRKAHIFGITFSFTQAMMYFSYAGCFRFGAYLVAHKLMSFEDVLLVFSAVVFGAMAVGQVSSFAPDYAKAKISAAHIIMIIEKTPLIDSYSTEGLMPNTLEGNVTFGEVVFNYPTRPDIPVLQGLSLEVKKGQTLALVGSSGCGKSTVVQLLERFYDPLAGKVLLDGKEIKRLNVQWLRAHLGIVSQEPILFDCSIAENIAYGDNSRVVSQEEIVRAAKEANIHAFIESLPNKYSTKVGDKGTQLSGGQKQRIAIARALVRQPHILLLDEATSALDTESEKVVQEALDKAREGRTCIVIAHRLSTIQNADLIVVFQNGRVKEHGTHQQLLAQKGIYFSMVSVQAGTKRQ

[7] = system: primary human fibroblasts; assay: Comparative cytotoxicity on primary human fibroblasts; conditions: FIG. 3A and 3B

## CO[C@H]1/C=C/O[C@@]2(C)Oc3c(C)c(O)c4c(c3C2=O)C2=NC3(CCN(CC(C)C)CC3)NC2=C(NC(=O)/C(C)=C\C=C\[C@H](C)[C@H](O)[C@@H](C)[C@@H](O)[C@@H](C)[C@H](OC(C)=O)[C@@H]1C)C4=O [Rifabutin, rifabutin]
[1]; CHOP-sensitive cells, relative to a control drug, FIG. 2B
  Sensitivity of cells to CHOP: enhanced the sensitivity
[1]; CRL2631 cells, FIG. 2A
  Effect on growth of cells in the absence of CHOP: did not affect the growth
[1]; low-ROS CRL2631 cells, 10 uM rifabutin, FIG. 34
  Sensitization of low-ROS cell population to CHOP: sensitized to CHOP
[2]; first study, CHOP at maximum tolerated dose weekly for 3 weeks + rifabutin 100 mg/kg by gavage
  Overall tumor burden per mouse versus CHOP only: much lower
[2]; third study, reduced dosages of CHOP + 33 mg/kg rifabutin weekly
  Tumor load versus untreated mice: significantly less
[3]
  Emergence of CHOP-resistant cells: significantly repress
[4]
  Induction of ROS: rapidly induces ROS
[5]
  Time for the effect on Akt: at least 18 hours
[6]
  Inhibition of efflux pumps: clear inhibition
[7]
  Toxicity to normal cells: not toxic
